The values below come from ChEMBL document CHEMBL4251605, “2-Substituted 7-trifluoromethyl-thiadiazolopyrimidones as alkaline phosphatase inhibitors. Synthesis, structure activity relationship and molecular docking study” (Eur J Med Chem, 2018).

Common to all, as to type: cell-based
Assay [1] has as its target T1, Alkaline phosphatase, tissue-nonspecific isozyme (Homo sapiens, UniProt P05186).
T1 sequence (P05186 whole entry): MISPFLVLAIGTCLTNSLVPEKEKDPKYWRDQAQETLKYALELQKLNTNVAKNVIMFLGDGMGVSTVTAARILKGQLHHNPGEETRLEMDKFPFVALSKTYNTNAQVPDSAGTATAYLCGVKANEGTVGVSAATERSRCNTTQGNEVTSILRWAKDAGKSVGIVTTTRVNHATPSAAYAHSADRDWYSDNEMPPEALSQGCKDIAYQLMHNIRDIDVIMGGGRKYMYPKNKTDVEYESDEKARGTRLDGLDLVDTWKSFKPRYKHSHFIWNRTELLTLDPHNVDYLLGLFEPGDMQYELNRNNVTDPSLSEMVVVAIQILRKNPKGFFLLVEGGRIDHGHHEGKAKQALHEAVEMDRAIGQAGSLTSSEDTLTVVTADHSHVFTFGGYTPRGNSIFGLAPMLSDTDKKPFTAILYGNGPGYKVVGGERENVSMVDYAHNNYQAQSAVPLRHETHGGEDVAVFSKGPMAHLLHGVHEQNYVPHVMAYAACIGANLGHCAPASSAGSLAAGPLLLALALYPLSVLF
Nature of the assay: Inhibition of human TNAP expressed in COS7 cells preincubated for 5 to 7 mins followed by CDP-star substrate addition measured after 15 to 20 mins by luminescence assay.

Assay [2] deals with Intestinal-type alkaline phosphatase (Homo sapiens, UniProt P09923). Nature of the assay: Inhibition of human IAP expressed in COS7 cells preincubated for 5 to 7 mins followed by CDP-star substrate addition measured after 15 to 20 mins by luminescence assay.
For assay [3], the species on record is Homo sapiens. Nature of the assay: Selectivity ratio of IC50 for human IAP expressed in COS7 cells to IC50 for human TNAP expressed in COS7 cells.

Intestinal-type alkaline phosphatase, sequence (P09923 whole entry): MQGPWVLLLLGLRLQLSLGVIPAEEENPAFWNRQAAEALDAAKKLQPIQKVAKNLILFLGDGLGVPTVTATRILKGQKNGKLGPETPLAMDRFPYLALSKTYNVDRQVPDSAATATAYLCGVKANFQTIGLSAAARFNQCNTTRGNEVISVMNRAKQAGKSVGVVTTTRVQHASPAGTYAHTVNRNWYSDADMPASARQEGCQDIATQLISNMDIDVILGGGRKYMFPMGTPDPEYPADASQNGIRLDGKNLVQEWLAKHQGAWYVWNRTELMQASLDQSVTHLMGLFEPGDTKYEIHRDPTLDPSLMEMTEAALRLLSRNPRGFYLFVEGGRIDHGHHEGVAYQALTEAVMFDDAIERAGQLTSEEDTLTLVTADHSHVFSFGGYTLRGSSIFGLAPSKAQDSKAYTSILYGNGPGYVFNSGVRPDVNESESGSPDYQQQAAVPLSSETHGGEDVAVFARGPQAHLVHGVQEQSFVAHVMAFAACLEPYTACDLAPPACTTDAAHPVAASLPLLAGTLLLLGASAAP

On to `COc1cccc(Nc2nn3c(=O)cc(C(F)(F)F)nc3s2)c1`, for which the IC50 was determined as 380 nM in assay [1] and 440 nM in assay [2].

With `C=CCNc1nn2c(=O)cc(C(F)(F)F)nc2s1`, the results for the IC50 in assay [1] and in assay [2] were 290 nM and 890 nM, respectively. For the same compound, the Ratio IC50 in assay [3] was determined as 3.

`CCCCN(CCCC)c1nn2c(=O)cc(C(F)(F)F)nc2s1`: the figures for the IC50 in assay [1] and in assay [2] were 1530 nM and 4630 nM, respectively.

As for `Cc1cc(C)cc(-c2nn3c(=O)cc(C(F)(F)F)nc3s2)c1`, the figures for the IC50 in assay [1] and in assay [2] were 520 nM and 460 nM, respectively.

`O=c1cc(C(F)(F)F)nc2sc(-c3cccc([N+](=O)[O-])c3)nn12`: the figures for the 50% inhibitory concentration (IC50) in assay [1] and in assay [2] were 620 nM and 480 nM, respectively.

Consider `CCOc1ccc(Nc2nn3c(=O)cc(C(F)(F)F)nc3s2)cc1`, for which the figures for the IC50 in assay [1] and in assay [2] were 1580 nM and 2020 nM, respectively.

Regarding `CN(C)CCNc1nn2c(=O)cc(C(F)(F)F)nc2s1`, the IC50 in assay [1] amounted to 450 nM; in assay [2], 3750 nM.

Turning to `O=c1cc(C(F)(F)F)nc2sc(-c3cccc(C(F)(F)F)c3)nn12`, the figures for the half-maximal inhibitory concentration (IC50) in assay [1] and in assay [2] were 520 nM and 680 nM, respectively.

`COc1ccc(-c2nn3c(=O)cc(C(F)(F)F)nc3s2)cc1`: the concentration for half-maximal inhibition (IC50) in assay [1] amounted to 280 nM; in assay [2] it was 480 nM.

As to `CCCCNc1nn2c(=O)cc(C(F)(F)F)nc2s1`, the IC50 came out at 880 nM in assay [1] and 710 nM in assay [2].

For `COc1ccccc1-c1nn2c(=O)cc(C(F)(F)F)nc2s1`, the IC50 was 3480 nM in assay [1] and over 100000 nM in assay [2].

Regarding `O=c1cc(C(F)(F)F)nc2sc(-c3cccc(F)c3)nn12`, the IC50 in assay [1] is 1390 nM; in assay [2], 740 nM.

Take `COc1cc(OC)cc(-c2nn3c(=O)cc(C(F)(F)F)nc3s2)c1`: the concentration for half-maximal inhibition (IC50) in assay [1] worked out at 1150 nM; in assay [2], 760 nM.

`N#Cc1cccc(-c2nn3c(=O)cc(C(F)(F)F)nc3s2)c1`: the IC50 in assay [1] amounted to 560 nM; in assay [2] it was 1120 nM.

For the compound `CCCNc1nn2c(=O)cc(C(F)(F)F)nc2s1`, the IC50 in assay [1] came out at 1440 nM; in assay [2] it was 310 nM.

With `O=c1cc(C(F)(F)F)nc2sc(-c3ccc(OC(F)(F)F)cc3)nn12`, the concentration for half-maximal inhibition (IC50) in assay [1] was over 100000 nM; in assay [2], 240 nM.

Consider `O=c1cc(C(F)(F)F)nc2sc(-c3cccc(-c4ccccc4)c3)nn12`, for which the results for the IC50 in assay [1] and in assay [2] were 1120 nM and 1670 nM, respectively.

Consider `Cc1ccc(-c2nn3c(=O)cc(C(F)(F)F)nc3s2)cc1`, for which the figures for the IC50 in assay [1] and in assay [2] were 1060 nM and 360 nM, respectively.

Turning to `CCOc1ccccc1-c1nn2c(=O)cc(C(F)(F)F)nc2s1`, the figures for the IC50 in assay [1] and in assay [2] were 4520 nM and over 100000 nM, respectively.

For `CCCCCNc1nn2c(=O)cc(C(F)(F)F)nc2s1`, the IC50 in assay [1] is 610 nM; in assay [2] it was 760 nM.

`CCOc1ccc(-c2nn3c(=O)cc(C(F)(F)F)nc3s2)cc1`: the concentration for half-maximal inhibition (IC50) came to 930 nM in assay [1] and 790 nM in assay [2].

As for `Nc1ccc(Nc2nn3c(=O)cc(C(F)(F)F)nc3s2)cc1`, the results for the half-maximal inhibitory concentration (IC50) in assay [1] and in assay [2] were 330 nM and 710 nM, respectively.

`O=c1cc(C(F)(F)F)nc2sc(-c3ccccc3)nn12`: the concentration for half-maximal inhibition (IC50) in assay [1] came to 210 nM; in assay [2], 430 nM.

On to `CC(C)c1ccc(Nc2nn3c(=O)cc(C(F)(F)F)nc3s2)cc1`, for which the 50% inhibitory concentration (IC50) was determined as 1980 nM in assay [1] and 31500 nM in assay [2].

On to `CCc1ccc(-c2nn3c(=O)cc(C(F)(F)F)nc3s2)cc1`, for which the IC50 in assay [1] was over 100000 nM; in assay [2], 4550 nM.

Turning to `O=c1cc(C(F)(F)F)nc2sc(-c3ccccc3F)nn12`, the IC50 in assay [1] and in assay [2] was over 100000 nM throughout.

Turning to `CN(N)c1nn2c(=O)cc(C(F)(F)F)nc2s1`, the IC50 in assay [1] turned out to be 2020 nM; in assay [2], 2220 nM.

Consider `N[C@@H](Cc1ccccc1)C(=O)O` [PHENYLALANINE], for which the IC50 in assay [2] is 80200 nM. That is a double-digit micromolar value.

As for `Cc1ccc(-c2nn3c(=O)cc(C(F)(F)F)nc3s2)cc1C`, the IC50 in assay [1] is 540 nM; in assay [2] it was 1750 nM.
